For this assay, the system named is P388 leukemia ip, CD2F1 mice, survival T/C. Description: NCI In Vivo Anticancer Drug Screen. Data for tumor model P388 Leukemia (intraperitoneal) in CD2F1 (CDF1) mice. To be noted: endpoint: median survival time, higher = longer survival. Put shortly:
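Mice carrying the transplanted tumor received test compound or vehicle. Survival was recorded in each group, and the value is the treated-group measurement divided by that of the vehicle-treated control group.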

Setting [1] is: dose: 60.0 mg/kg/injection, schedule: Q01DX005 (ip), vehicle: saline with Tween-80.
Where [2] appears, read: dose: 120.0 mg/kg/injection, schedule: Q01DX005 (ip), vehicle: saline with Tween-80.
Setting [3] is: dose: 240.0 mg/kg/injection, schedule: Q01DX005 (ip), vehicle: saline with Tween-80.
Setting [4] is: dose: 25.0 mg/kg/injection, schedule: Q01DX009 (ip), vehicle: saline with Tween-80.
[5] abbreviates: dose: 50.0 mg/kg/injection, schedule: Q01DX009 (ip), vehicle: saline with Tween-80.
[6] abbreviates: dose: 100.0 mg/kg/injection, schedule: Q01DX001 (ip), vehicle: saline with Tween-80.
The mark [7] stands for this setting: dose: 200.0 mg/kg/injection, schedule: Q01DX001 (ip), vehicle: saline with Tween-80.
The mark [8] stands for this setting: dose: 100.0 mg/kg/injection, schedule: Q01DX009 (ip), vehicle: saline with Tween-80.
Setting [9] is: dose: 200.0 mg/kg/injection, schedule: Q01DX009 (ip), vehicle: saline with Tween-80.
Setting [10] is: dose: 50.0 mg/kg/injection, schedule: Q01DX009 (ip), vehicle: saline.
Where [11] appears, read: dose: 50.0 mg/kg/injection, schedule: Q01DX009 (ip), vehicle: Klucel (hydroxypropylcellulose) (HPC).
[12] abbreviates: dose: 100.0 mg/kg/injection, schedule: Q01DX009 (ip), vehicle: Klucel (hydroxypropylcellulose) (HPC).
[13] abbreviates: dose: 200.0 mg/kg/injection, schedule: Q01DX009 (ip), vehicle: Klucel (hydroxypropylcellulose) (HPC).

Where “and” joins values, the source holds several entries; their conditions need not be identical. Identical values can stand only once. Inconclusive results and toxic doses are left out.

As for `COCCCN=C(N)c1ccc(NC(=O)c2ccc(C(=O)Nc3ccc(C(N)=NCCCOC)cc3)cc2)cc1`, the T/C is, setting by setting: (dose: 1.65 mg/kg/injection, schedule: Q01DX009 (ip), vehicle: saline with Tween-80) 154 % of control; (dose: 2.5 mg/kg/injection, schedule: Q01DX009 (ip), vehicle: saline with Tween-80) 154 % of control; (dose: 3.75 mg/kg/injection, schedule: Q01DX009 (ip), vehicle: saline with Tween-80) 195 % of control; (dose: 5.63 mg/kg/injection, schedule: Q01DX009 (ip), vehicle: saline with Tween-80) 227 % of control; (dose: 6.6 mg/kg/injection, schedule: Q04DX003 (ip), vehicle: saline with Tween-80) 155 % of control; (dose: 10.0 mg/kg/injection, schedule: Q04DX003 (ip), vehicle: saline with Tween-80) 150 % of control. Also, the T/C runs as follows: (dose: 12.5 mg/kg/injection, schedule: Q04DX003 (ip), vehicle: saline with Tween-80) 177 % of control; (dose: 15.0 mg/kg/injection, schedule: Q04DX003 (ip), vehicle: saline with Tween-80) 200 % of control; (dose: 25.0 mg/kg/injection, schedule: Q04DX003 (ip), vehicle: saline with Tween-80) 200 % of control; (dose: 50.0 mg/kg/injection, schedule: Q04DX003 (ip), vehicle: saline with Tween-80) 90 % of control.

`CCOC(CCC1(C)C(=O)CCC1=O)(OCC)OCC`: the T/C runs as follows: under setting [1], 106 % of control; under setting [2], 106 % of control; under setting [3], 99 % of control.

Take `CCCCNC(=S)NC(=O)c1ccccc1`: the T/C reads like this: under setting [4], 95 % of control; under setting [5], 94 % of control.

Consider `Cc1ccc(S(=O)(=O)OCCOc2ccc(-c3nc4ccccc4[nH]3)cc2)cc1`, for which the T/C is 92 % of control under setting [6]; 90 % of control under setting [7]; 101 % of control (dose: 400.0 mg/kg/injection, schedule: Q01DX001 (ip), vehicle: saline with Tween-80).

Consider `COC1/C=C/OC2(C)Oc3c(C)c(O)c4c(O)c(c(/C=N/N(C)c5ncnc6c5ncn6C5OC(CO)C(O)C5O)c(O)c4c3C2=O)NC(=O)C(C)=C/C=C/C(C)C(O)C(C)C(O)C(C)C(OC(C)=O)C1C` (stereo not drawn), for which the T/C under setting [5] is 100 % of control, the T/C under setting [8] is 102 % of control and the T/C under setting [9] was 102 % of control.

With `CCN(CC)C(C)COC(=O)c1ccc(N)cc1` (stereo not drawn), the T/C is 86 % of control (dose: 12.5 mg/kg/injection, schedule: Q01DX009 (ip), vehicle: saline); 95 % of control (dose: 12.5 mg/kg/injection, schedule: Q04DX003 (ip), vehicle: saline); 91 % of control (dose: 25.0 mg/kg/injection, schedule: Q04DX003 (ip), vehicle: saline); 100 % of control under setting [10]; 91 % of control (dose: 50.0 mg/kg/injection, schedule: Q04DX003 (ip), vehicle: saline).

As to `Oc1ccc(N=Cc2ccc(OCc3ccccc3)cc2)cc1`, the T/C under setting [5] was 97 % of control, the T/C under setting [8] was 93 % of control and the T/C under setting [9] was 93 % of control.

For the compound `CN(C)C(=O)Nc1ccc(-c2cccnc2)cc1`, the T/C was 109 % of control (dose: 60.0 mg/kg/injection, schedule: Q01DX005 (ip), vehicle: saline); 107 % of control (dose: 120.0 mg/kg/injection, schedule: Q01DX005 (ip), vehicle: saline); 93 % of control (dose: 240.0 mg/kg/injection, schedule: Q01DX005 (ip), vehicle: saline).

As to `COc1cc(C=O)cc(Br)c1O`, the T/C (dose: 25.0 mg/kg/injection, schedule: Q01DX009 (ip), vehicle: Klucel (hydroxypropylcellulose) (HPC)) is 108 % of control; the T/C under setting [11] was 108 % of control; the T/C under setting [12] was 108 % of control; the T/C under setting [13] is 105 % of control.

On to `CSC(=N\N=C\c1ccc2c(c1)OCO2)/N=C/N(C)C`, for which the T/C under setting [1] was 98 % of control, the T/C under setting [2] was 97 % of control and the T/C under setting [3] was 94 % of control.

Turning to `CCOC(=O)COc1ccc2c(=O)c(C)c(-c3ccccc3)oc2c1`, the T/C under setting [10] is 97 % of control; the T/C (dose: 100.0 mg/kg/injection, schedule: Q01DX009 (ip), vehicle: saline) was 101 % of control; the T/C (dose: 200.0 mg/kg/injection, schedule: Q01DX009 (ip), vehicle: saline) is 97 % of control.

For the compound `O=c1c2ccccc2sc2c1c(N(CCCl)CCCl)cc1ccccc12`, the T/C (dose: 25.0 mg/kg/injection, schedule: Q01DX005 (ip), vehicle: distilled water + Tween-80) is 92 % of control; the T/C (dose: 50.0 mg/kg/injection, schedule: Q01DX005 (ip), vehicle: distilled water + Tween-80) is 94 % of control; the T/C (dose: 100.0 mg/kg/injection, schedule: Q01DX005 (ip), vehicle: distilled water + Tween-80) was 94 % of control; the T/C (dose: 200.0 mg/kg/injection, schedule: Q01DX005 (ip), vehicle: distilled water + Tween-80) was 95 % of control.

As for `O=C(O)c1cc(-c2c(Cl)cccc2Cl)nc2cc3ccccc3cc12`, the T/C runs as follows: under setting [11], 111 % of control; under setting [12], 106 % of control; under setting [13], 106 % of control.

With `CCCCCCC(=O)/C=C/c1cccc(OCOC)c1`, the T/C under setting [5] was 87 % of control, the T/C under setting [8] was 113 % of control and the T/C under setting [9] is 103 % of control.

`CCN(CC)c1ccc2c(C)cc(=O)oc2c1`: the T/C (dose: 25.0 mg/kg/injection, schedule: Q04DX003 (ip), vehicle: DMSO) was 92 % of control and the T/C (dose: 50.0 mg/kg/injection, schedule: Q04DX003 (ip), vehicle: DMSO) is 88 % of control.

Consider `CC1CN1C1=C(F)C(=O)C(N2CC2C)=C(F)C1=O` (stereo not drawn), for which the T/C was 104 % of control (dose: 1.56 mg/kg/injection, schedule: Q01DX009 (ip), vehicle: Klucel (hydroxypropylcellulose) (HPC)); 106 % of control and 110 % of control and 116 % of control (dose: 3.12 mg/kg/injection, schedule: Q01DX009 (ip), vehicle: Klucel (hydroxypropylcellulose) (HPC)); 105 % of control and 123 % of control (dose: 6.25 mg/kg/injection, schedule: Q01DX009 (ip), vehicle: Klucel (hydroxypropylcellulose) (HPC)).

Regarding `CC1C(=O)C23CCC4C5(C)CCCC4(CN4CCOC45)C2CCC1C3` (stereo not drawn), the T/C reads like this: (dose: 1.0 mg/kg/injection, schedule: Q01DX009 (ip), vehicle: Klucel (hydroxypropylcellulose) (HPC)) 97 % of control; (dose: 2.0 mg/kg/injection, schedule: Q01DX009 (ip), vehicle: Klucel (hydroxypropylcellulose) (HPC)) 95 % of control; (dose: 4.0 mg/kg/injection, schedule: Q01DX009 (ip), vehicle: Klucel (hydroxypropylcellulose) (HPC)) 98 % of control; (dose: 8.0 mg/kg/injection, schedule: Q01DX009 (ip), vehicle: Klucel (hydroxypropylcellulose) (HPC)) 103 % of control.

As for `O=C1CC2C(CC3OC(=O)C4C3C23COC4(O)C(O)C3)c2occc21` (stereo not drawn), the T/C is, setting by setting: under setting [6], 104 % of control; under setting [7], 101 % of control.

`O=[N+]([O-])c1ccc2c(c1)[S@@](=O)c1nc([N+](=O)[O-])cnc1N2`: the T/C by setting is: (dose: 50.0 mg/kg/injection, schedule: Q01DX005 (ip), vehicle: Klucel (hydroxypropylcellulose) (HPC)) 103 % of control; (dose: 100.0 mg/kg/injection, schedule: Q01DX005 (ip), vehicle: Klucel (hydroxypropylcellulose) (HPC)) 101 % of control.

With `C/C=C\c1noc2c1C(=O)OC(C)C2` (stereo not drawn), the T/C under setting [1] is 104 % of control, the T/C under setting [2] was 96 % of control and the T/C under setting [3] was 103 % of control.

On to `Cc1ccc(NC(=O)Oc2ccc(OCc3ccccc3)cc2)c([N+](=O)[O-])c1`, for which the T/C is 99 % of control under setting [5], 97 % of control under setting [8] and 95 % of control under setting [9].

For the compound `O=C(O)CNC(CO)C(=O)O` (stereo not drawn), the T/C by setting is: (dose: 25.0 mg/kg/injection, schedule: Q01DX005 (ip), vehicle: water) 100 % of control; (dose: 50.0 mg/kg/injection, schedule: Q01DX005 (ip), vehicle: water) 100 % of control; (dose: 100.0 mg/kg/injection, schedule: Q01DX005 (ip), vehicle: water) 95 % of control; (dose: 200.0 mg/kg/injection, schedule: Q01DX005 (ip), vehicle: water) 89 % of control.

Regarding `O=C(O)c1cc(O)cc(C(=O)O)c1`, the T/C reads like this: under setting [4], 99 % of control; under setting [5], 99 % of control; under setting [8], 94 % of control.

(Values after PubChem BioAssay AID330 (DTP/NCI, 2004).)
